US11078213B2, “Thienopyrimidine compound, preparation method thereof, pharmaceutical composition and application thereof” (HONGYUN BIOTECH CO., LTD., priority 2016, dated 2021)

How the values were obtained:
Type in all cases: cell-based
[1] = tested on: anaplastic large cell lymphoma Karpas-299; experiment: Growth inhibitory activity on tumor cells Karpas-299; settings: Homo sapiens; Karpas-299 tumor cells
Protocol: If the tumor cells tested were suspension cells, the assay was carried out in accordance with the method (1) above.
If the tumor cells tested were adherent cells, cells were incubated 1000-10000 cells/well in a 96-well culture plate until adherent, and then compounds were added. Others were carried out in accordance with the method (1) above.

NPM-ALK-BaF3 = biological target: T1, NPM-ALK-BaF3 (Homo sapiens, UniProt Q9UM73); experiment: Growth inhibition of BaF3 cells stably transfected with kinase NPM-ALK (MTS); settings: compound concentration 3.3 μM, read-out: cell growth inhibition rate, NPM-ALK
T1 construct: NPM (nuclear phosphoprotein / nucleophosmin, NPM1, P06748) fusion partner; expressed in transfected cells; host or cells: BaF3; the other entry of the earlier key: NPM1 (P06748, Nucleophosmin)
Protocol: (§1) The specific test method is given as follows:
(§2) 2) Reagent: MTS reaction solution (containing 2 mg/mL of MTS [3-(4,5-dimethylthiazol-2-yl)-5-(3-carboxymethoxyphenyl)-2-(4-sulfophenyl)-2H-tetra zolium, inner Salt]; 100 µg/mL PES ([…])).

EML4-ALK-BaF3 = biological target: T2, EML4-ALK-BaF3 (Homo sapiens, UniProt Q9UM73); experiment: Growth inhibition of BaF3 cells stably transfected with kinase EML4-ALK (MTS); settings: compound concentration 3.3 μM, read-out: cell growth inhibition rate, EML4-ALK
T2 construct: EML4 (echinoderm microtubule associated protein like 4, Q9HC35) fusion partner; expressed in transfected cells; host or cells: BaF3; the other entry of the earlier key: EML4 (Q9HC35, Echinoderm microtubule-associated protein-like 4)
Protocol: as §1, §2

T2 sequence (Q9UM73 1058-1620 limits assumed): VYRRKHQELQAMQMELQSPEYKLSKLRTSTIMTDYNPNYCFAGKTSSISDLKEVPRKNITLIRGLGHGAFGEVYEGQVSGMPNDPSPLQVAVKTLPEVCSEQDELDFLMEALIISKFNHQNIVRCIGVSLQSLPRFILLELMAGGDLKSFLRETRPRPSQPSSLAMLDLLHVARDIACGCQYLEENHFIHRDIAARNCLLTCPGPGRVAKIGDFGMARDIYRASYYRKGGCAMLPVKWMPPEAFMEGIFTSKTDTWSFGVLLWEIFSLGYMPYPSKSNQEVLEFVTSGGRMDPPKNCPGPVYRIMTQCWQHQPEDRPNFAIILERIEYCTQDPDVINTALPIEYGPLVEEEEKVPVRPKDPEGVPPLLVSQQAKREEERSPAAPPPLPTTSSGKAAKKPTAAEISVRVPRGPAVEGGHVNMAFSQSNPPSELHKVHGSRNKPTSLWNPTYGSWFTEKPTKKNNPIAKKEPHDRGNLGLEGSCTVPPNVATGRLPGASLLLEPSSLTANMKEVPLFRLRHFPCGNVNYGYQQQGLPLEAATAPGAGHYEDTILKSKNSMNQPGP
T1 sequence (Q9UM73 with tags, fused parts or gaps): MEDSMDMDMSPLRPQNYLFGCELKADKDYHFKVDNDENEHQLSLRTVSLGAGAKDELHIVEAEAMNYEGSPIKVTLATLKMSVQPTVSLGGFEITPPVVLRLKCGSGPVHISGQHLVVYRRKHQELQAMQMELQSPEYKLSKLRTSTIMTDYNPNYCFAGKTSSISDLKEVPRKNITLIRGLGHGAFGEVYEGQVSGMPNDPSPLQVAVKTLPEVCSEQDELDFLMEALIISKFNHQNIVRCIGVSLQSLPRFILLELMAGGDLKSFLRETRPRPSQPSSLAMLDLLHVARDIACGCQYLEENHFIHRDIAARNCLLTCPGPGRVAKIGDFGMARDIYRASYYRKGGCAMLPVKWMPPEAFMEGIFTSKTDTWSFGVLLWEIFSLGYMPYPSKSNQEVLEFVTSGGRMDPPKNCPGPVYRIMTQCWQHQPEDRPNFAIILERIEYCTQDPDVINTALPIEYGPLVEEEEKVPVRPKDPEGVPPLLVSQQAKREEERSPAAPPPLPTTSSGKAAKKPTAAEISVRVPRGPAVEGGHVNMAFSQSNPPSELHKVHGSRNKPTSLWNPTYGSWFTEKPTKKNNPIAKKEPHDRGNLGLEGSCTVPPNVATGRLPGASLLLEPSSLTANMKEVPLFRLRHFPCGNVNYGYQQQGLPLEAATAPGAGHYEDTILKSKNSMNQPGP

Row | Structure (SMILES) | IC50 [1] [nM] | inhibition at 3.3 µM (NPM-ALK-BaF3) [%] | inhibition at 3.3 µM (EML4-ALK-BaF3) [%]
1 | C[C@@H](Oc1cc(-c2cnn(C3CCNCC3)c2)cnc1N)c1c(Cl)ccc(F)c1Cl [Crizotinib, reference compound] | 61 |  | 
2 | CCOc1cc(N2CCN(C)CC2)ccc1Nc1nc(Nc2ccccc2C(=O)OC)c2sccc2n1 [IE-6] |  | 0 | 98.5
3 | COC(=O)c1ccccc1Nc1nc(Nc2cc(C)c(C3CCN(C)CC3)cc2OC(C)C)nc2ccsc12 [IE-7] |  | 86.1 | 98.8
4 | COC(=O)c1ccccc1Nc1nc(Nc2cc(C)c(C3CCN(C)CC3)cc2OC)nc2ccsc12 [IE-8] |  | 84.2 | 98
5 | CNC(=O)c1cccc(F)c1Nc1nc(Nc2cc3c(cc2OC)CCN3C(=O)CN(C)C)nc2ccsc12 [IF-1] |  | 6.16 | > 99
6 | CNC(=O)c1cccc(F)c1Nc1nc(Nc2ccc(N3CCC(N4CCN(C)CC4)CC3)cc2OC)nc2ccsc12 [IF-2] |  | 2.77 | 3.41
7 | CNC(=O)c1cccc(F)c1Nc1nc(Nc2ccc(N3CCN(C)CC3)cc2OC)nc2ccsc12 [IF-3] |  | 12 | 87.1
8 | COc1cc(C2CCN(C)CC2)c(C)cc1Nc1nc(Nc2cccc(NS(C)(=O)=O)c2)c2sccc2n1 [IG-4] |  | 87.6 | 97.8
9 | COc1cc(N2CCC(N3CCCC3)CC2)ccc1Nc1nc(Nc2cccc(NS(C)(=O)=O)c2)c2sccc2n1 [IG-5] |  | 10.9 | > 99
10 | COc1cc(C2CCN(C)CC2)c(C)cc1Nc1nc(Nc2ccccc2NS(C)(=O)=O)c2sccc2n1 [IH-5] |  | 84.2 | 98
11 | COc1cc(N2CCC(N3CCCC3)CC2)ccc1Nc1nc(Nc2ccccc2NS(C)(=O)=O)c2sccc2n1 [IH-6] |  | 84.5 | 97.8
12 | CNC(=O)c1ccccc1Nc1nc(Nc2ccc(N3CCC(N4CCN(C)CC4)CC3)cc2)nc2ccsc12 [II-6] |  | 36.9 | 92.9
13 | CNC(=O)c1ccccc1Nc1nc(Nc2ccc(N3CCC(N4CCCC4)CC3)cc2OC)nc2ccsc12 [II-7] |  | 79.5 | 98.5
14 | CNC(=O)c1ccccc1Nc1nc(Nc2cc(C)c(C3CCN(C)CC3)cc2OC(C)C)nc2ccsc12 [II-8] |  | 86.6 | > 99
15 | CNC(=O)c1ccccc1Nc1nc(Nc2cc(C)c(C3CCN(C)CC3)cc2OC)nc2ccsc12 [II-9] |  | 90 | 99.9
16 | COc1cc2c(cc1Nc1nc(Nc3ccccc3[S+]([O-])C(C)C)c3sccc3n1)N(C(=O)CN(C)C)CC2 (centres unmarked) [IJ-1] |  | 87.1 | > 99
17 | COc1cc(N2CCC(N3CCN(C)CC3)CC2)ccc1Nc1nc(Nc2ccccc2[S+]([O-])C(C)C)c2sccc2n1 (centres unmarked) [IJ-2] |  | 87.7 | 99.3

Row | Structure (SMILES) | IC50 [1] [nM] | inhibition at 3.3 µM (NPM-ALK-BaF3) [%] | inhibition at 3.3 µM (EML4-ALK-BaF3) [%]
18 | COc1cc(N2CCC(N3CCCC3)CC2)ccc1Nc1nc(Nc2ccccc2[S+]([O-])C(C)C)c2sccc2n1 (centres unmarked) [IJ-3] |  | 84.8 | 99.9
19 | COc1cc(N2CCN(C)CC2)ccc1Nc1nc(Nc2ccccc2[S+]([O-])C(C)C)c2sccc2n1 (centres unmarked) [IJ-4] |  | 88.8 | > 99
20 | COc1cc(N2CCC(N(C)C)CC2)ccc1Nc1nc(Nc2ccccc2[S+]([O-])C(C)C)c2sccc2n1 (centres unmarked) [IJ-6] |  | 81.9 | > 99
21 | COc1cc2c(cc1Nc1nc(Nc3ccccc3P(C)(C)=O)c3sccc3n1)N(C(=O)CN(C)C)CC2 [IK-1] |  | 86.7 | > 99
22 | COc1cc(N2CCC(N3CCN(C)CC3)CC2)ccc1Nc1nc(Nc2ccccc2P(C)(C)=O)c2sccc2n1 [IK-2] |  | 82.8 | 100
23 | COc1cc(N2CCC(N3CCCC3)CC2)ccc1Nc1nc(Nc2ccccc2P(C)(C)=O)c2sccc2n1 [IK-3] |  | 82.5 | > 99
24 | COc1cc(N2CCN(C)CC2)ccc1Nc1nc(Nc2ccccc2P(C)(C)=O)c2sccc2n1 [IK-4] |  | 77.4 | 99.3
25 | COc1cc(C2CCN(C)CC2)c(C)cc1Nc1nc(Nc2ccccc2P(C)(C)=O)c2sccc2n1 [IK-5] |  | 85.5 | 99.6
26 | COc1cc(N2CCC(N(C)C)CC2)ccc1Nc1nc(Nc2ccccc2P(C)(C)=O)c2sccc2n1 [IK-6] |  | 90.2 | 99.3
27 | COC(=O)c1ccccc1Sc1nc(Nc2cc3c(cc2OC)CCN3C(=O)CN(C)C)nc2ccsc12 [IN-1] |  | 17.7 | 100
28 | COC(=O)c1ccccc1Sc1nc(Nc2ccc(N3CCC(N4CCN(C)CC4)CC3)cc2OC)nc2ccsc12 [IN-2] |  | 16.2 | 99.2
29 | COC(=O)c1ccccc1Sc1nc(Nc2ccc(N3CCN(C)CC3)cc2OC)nc2ccsc12 [IN-3] |  | 12.3 | 98.8
30 | COC(=O)c1ccccc1Sc1nc(Nc2ccc(N3CCC(O)CC3)cc2)nc2ccsc12 [IN-4] |  | 7.09 | 98.3
31 | COC(=O)c1ccccc1Sc1nc(Nc2ccc(S(N)(=O)=O)cc2)nc2ccsc12 [IN-5] |  | 6.73 | 30.9
32 | COC(=O)c1ccccc1Sc1nc(Nc2ccc(N3CCC(N4CCCC4)CC3)cc2OC)nc2ccsc12 [IN-6] |  | 46.7 | 98.4
33 | COC(=O)c1ccccc1Sc1nc(Nc2cc(C)c(C3CCN(C)CC3)cc2OC)nc2ccsc12 [IN-7] |  | 70 | > 99
